{
  "source": "patent US20120065195A1",
  "about": "“COMPOUNDS FOR TREATING NEURODEGENERATIVE DISEASES” (priority 2010, published 2012)",
  "note": "pIC50: −log10 of the molar value.",
  "data": [
    {"molecular_target": "T1, BACE1 (Homo sapiens, UniProt P56817)", "T1 construct": "endogenous in cells; host or cells: HEK-293 (stably transfected with wild type APP695 only)", "T1 sequence (P56817 46-501)": "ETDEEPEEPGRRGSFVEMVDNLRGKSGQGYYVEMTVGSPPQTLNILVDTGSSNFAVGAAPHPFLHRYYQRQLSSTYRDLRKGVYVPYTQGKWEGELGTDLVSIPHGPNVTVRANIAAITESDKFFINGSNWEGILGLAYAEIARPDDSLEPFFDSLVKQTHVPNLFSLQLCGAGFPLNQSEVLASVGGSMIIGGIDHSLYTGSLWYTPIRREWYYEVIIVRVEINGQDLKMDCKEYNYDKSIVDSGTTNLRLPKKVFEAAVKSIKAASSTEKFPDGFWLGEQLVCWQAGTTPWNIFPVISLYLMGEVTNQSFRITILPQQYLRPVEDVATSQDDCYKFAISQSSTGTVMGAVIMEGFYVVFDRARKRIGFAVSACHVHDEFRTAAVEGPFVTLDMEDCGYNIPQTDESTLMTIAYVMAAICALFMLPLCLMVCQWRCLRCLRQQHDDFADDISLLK", "assay": "Cellular BACE1 Inhibition Assay (in vitro cellular Amyloidβ 1-40 production assay, HTRF immunoassay)", "type": "cell-based", "protocol": "The BACE inhibition properties of the compounds of the invention may be determined by the following in vitro cellular Amyloidβ 1-40 production assay.\nInhibition of Amyloidβ1-40 production was determined by incubating cells with compound for 48 hours and quantifying the level of Amyloidβ 1-40 using an HTRF immunoassay.\nMaterials and Methods: HEK-293 cells stably transfected with a DNA construct containing the coding sequence for the wild type APP695 sequence were grown in DMEM supplemented with 10% fetal bovine serum, penicillin/streptomycin and 150 μg/mL G418. Cells were plated in 96-well plates at 35,000 cells/well and allowed to attach for 8-12 hours. Media was changed to DMEM supplemented with 10% fetal bovine serum, penicillin/streptomycin 15 minutes prior to compound addition. Diluted compounds were then added at a final concentration of 0.5% DMSO. After 48 hours, 4 μL of media from each well was added to a corresponding well of a 384 well plate (Perkin Elmer Cat#6008280) containing the HTRF reagents. HTRF reagents were obtained from the CisBio Amyloidβ 1-40 peptide assay kit (Cat#62B40PEC) and were prepared as follows anti-peptide β (1-40)-Cryptate and anti-peptide β (1-40)-XL655 were stored in 2 plate aliquots at −80° C. Diluent and Reconstitution buffer were stored at 4° C. Aliquots of the two antibodies were diluted 1:100 with Reconstitution buffer, and this mixture was diluted 1:2 with Diluent. 12 μL of the reagent mixture was added to the required wells of the 384 well assay plate. The assay plate was incubated at 4° C. for 17 hours and then analyzed for fluorescence at 665 and 620 nm.", "values": [
      {"smiles": "CN1C(=O)C2(CC(C)(C)Cc3ccc(C#CC4CC4)cc32)N=C1N", "note": "(stereo not drawn) [Example 17, 2-amino-7′-(cyclopropylethynyl)-1,3′,3′-trimethyl-3′,4′-dihydro-2′H-spiro[imidazole-4,1′-naphthalen]-5(1H)-one]", "pIC50": 7.09},
      {"smiles": "CC(C)CCc1ccc2c(c1)C1(N=C(N)N(C)C1=O)C(C)CC2", "note": "(stereo not drawn) [Example 22]", "pIC50": 6.58},
      {"smiles": "CN1C(=O)C2(CCCc3ccc(-c4cncnc4)cc32)N=C1N", "note": "(stereo not drawn) [Example 25, 2-Amino-1-methyl-7′-(pyrimidin-5-yl)-3′,4′-dihydro-2′H-spiro[imidazole-4,1′-naphthalen]-5(1H)-one]", "pIC50": 6.99},
      {"smiles": "CC1(C)Cc2ccc(-c3cncnc3)cc2C2(CSC(N)=N2)C1", "note": "(stereo not drawn) [Example 109, 3,3-dimethyl-7-(pyrimidin-5-yl)-3,4-dihydro-2H,5′H-spiro[naphthalene-1,4′-thiazol]-2′-amine]", "pIC50": 6.32},
      {"smiles": "CN1C(=O)C2(N=C1N)c1cc(-c3cncc(Cl)c3)ccc1CC(C)(C)C2F", "note": "(stereo not drawn) [Example 158, 2-amino-7′-(5-chloropyridin-3-yl)-2′-fluoro-1,3′,3′-trimethyl-3′,4′-dihydro-2′H-spiro[imidazole-4,1′-naphthalen]-5(1H)-one]", "pIC50": 8.17},
      {"smiles": "CN1C(=O)C2(N=C1N)c1cc(-c3cccnc3F)ccc1CC(C)(C)C2(F)F", "note": "(stereo not drawn) [Example 159, 2-amino-2′,2′-difluoro-7′-(2-fluoropyridin-3-yl)-1,3′,3′-trimethyl-3′,4′-dihydro-TH-spiro[imidazole-4,1′-naphthalen]-5(1H)-one]", "pIC50": 7.58},
      {"smiles": "CN1C(=O)C2(CCCc3ccc(-c4cncc(Cl)c4)cc32)N=C1N", "note": "(stereo not drawn) [Example 23, 2-amino-7′-(5-chloropyridin-3-yl)-1-methyl-3′,4′-dihydro-2′H-spiro[imidazole-4,1′-naphthalen]-5(1H)-one]", "pIC50": 7.55},
      {"smiles": "CC1CCc2ccc(-c3cccc(OC(F)F)c3)cc2C12N=C(N)N(C)C2=O", "note": "(stereo not drawn) [Example 57, 2-amino-7′-(3-(difluoromethoxy)phenyl)-1,2′-dimethy1-3′,4-dihydro-2′H-spiro[imidazole-4,1′-naphthalen]-5(1H)-one]", "pIC50": 6.44},
      {"smiles": "CN1C(=O)CC2(CC(C)(C)Cc3ccc(-c4cccnc4F)cc32)N=C1N", "note": "(stereo not drawn) [Example 96, 2′-amino-7-(2-fluoropyridin-3-yl)-1′,3,3-trimethyl-3,4-dihydro-1′H,2H-spiro[naphthalene-1,4′-pyrimidin]-6′(5′H)-one]", "pIC50": 5.88}
    ]}
  ]
}
